The values that follow come from US20240300913A1, “FLAVONE DERIVATIVE AND USE THEREOF FOR IMPROVING PULMONARY FIBROSIS” (A-CHEMBIO CO., LTD, priority 2023, published 2024).

Series [1] relates to HULEC-5a cells. The series can be described thus: MTT cytotoxicity evaluation in HULEC-5a cells. Conditions: incubated for 24, 48, and 72 hours. Type of series: cell-based, human. On the procedure:
(§1) To confirm the effect of novel flavone derivative I on cell viability, HULEC-5a, human lung microvascular endothelial cells, were used to examine cell viability with MTT [3-(4,5-dimethylthiazol-2-yl)-2,5-diphenyltetrazolium bromide]. After being suspended in a medium, HULEC-5a cells were dispensed into a 96-well plate and incubated for 24 hours. […] After incubation, all media was removed, and MTT was diluted (0.5 mg/mL) in phosphate-buffered saline (PBS). Then, 200 μL of the diluted MTT was dispensed into each well, and incubation was performed in a CO2 incubator for 4 hours. After 4 hours, the MTT solution was removed, and 160 μL of dimethyl sulfoxide (DMSO) was dispensed into each well to dissolve the formazan precipitate for 30 minutes. Next, the absorbance was measured at 570 nm.
(§2) Cytotoxicity tests of novel flavone derivative II (Achem II) on A549 cells, HULEC-5a cells, and HLF cells were performed in the same manner as in Example 1 above, using the MTT assay. The results thereof are shown in FIGS. 17 to 19 as cell viability (%) after 24, 48, and 72 hours compared to that of the control group, the untreated sample group.
(§3) Cytotoxicity tests of novel flavone derivative III (Achem III) on A549 cells, HULEC-5a cells, and HLF cells were performed in the same manner as in Example 1 above, using the MTT assay. The results thereof are shown in FIGS. 27 to 29 as cell viability (%) after 24, 48, and 72 hours compared to that of the control group, the untreated sample group.

A further series deals with HLF cells. The series can be described thus: MTT cytotoxicity evaluation in HLF cells. Type of series: cell-based, human. Conditions: all treatment concentrations up to 10 μM, incubated for 24, 48, and 72 hours, compared to untreated control. On the procedure: as §1, with “viability,” for “viability, HULEC-5a,”, “fibroblasts (HLF)” for “microvascular endothelial cells,”, “HLF” for “HULEC-5a”
as §2, §3

For series [2], the system named is A549 cells. The series can be described thus: Effect upon TGF-β1 treatment in A549 cells (western blot of protein levels). Type of series: cell-based. On the procedure:
3.5*10^5 A549 cells, derived from lung cancer, were suspended in a medium, dispensed into a 60-mm plate, and incubated for 48 hours. After 48 hours of incubation, each plate was treated with TGF-β1 (10 ng/ml) alone or in combination with novel flavone derivative I at varying concentrations or a predetermined concentration and/or nintedanib (NIDB), a therapeutic drug for idiopathic pulmonary fibrosis and interstitial lung disease as a positive control. […] Next, only the supernatant was collected by centrifugation (at 14,000 rpm for 10 minutes) at 4° C., and the proteins were separated by SDS-polyacrylamide gel electrophoresis (SDS-PAGE). The separated proteins were transferred to a polyvinylidene difluoride membrane (PVDF membrane), reacted in 5% nonfat dry milk for 3 hours, and then reacted with primary antibodies at 4° C. for 12 hours. After 12 hours, the proteins further reacted with secondary antibodies corresponding to the respective primary antibodies. Then, the protein band was examined, according to the manufacturer's protocol, using an ECL kit.
The effect of novel flavone derivative II upon TGF-β1 treatment in A549 cells was evaluated in the same manner as in Example 1 above. FIGS. 20 and 21 show the results thereof.
The effect of novel flavone derivative III upon TGF-β1 treatment in A549 cells was evaluated in the same manner as in Example 1 above.
On the technique in general: In western blotting, separated proteins are transferred to a membrane and probed.

The test system of series [3] is A549 cells. The series can be described thus: Effect of bleomycin treatment on A549 cells (western blot of protein levels). Type of series: cell-based. Conditions: BLM and/or compound, 3, 24, and 48 hours. How it is done:
A549 cells, derived from lung cancer, were incubated at different cell numbers depending on the sample treatment time. 4.5×10^5 cells (30 minutes to 12 hours), 4.0×10^5 cells (24 hours), and 3.5×10^5 cells (48 hours) were suspended in the respective media, dispensed into a 60-mm plate, and incubated for 24 hours. After 24 hours, each plate was treated with bleomycin (BLM) alone or in combination with novel flavone derivative I at a predetermined concentration. After a predetermined period of incubation, the cells were lysed with RIPA lysis buffer ([50 mM Tris]-Cl (pH, 7.4), 1% NP-40, 150 mM NaCl, 1 mM EDTA, and 1 mM phenylmethylsulfonyl fluoride (PMSF)) containing MG-132 (10 μM). Next, only the supernatant was collected by centrifugation (at 14,000 rpm for 10 minutes) at 4° C., and the proteins were separated by SDS-polyacrylamide gel electrophoresis (SDS-PAGE). The separated proteins were transferred to a polyvinylidene difluoride membrane (PVDF membrane), reacted in 5% nonfat dry milk for 3 hours, and then reacted with primary antibodies at 4° C. for 12 hours. After 12 hours, the proteins further reacted with secondary antibodies corresponding to the respective primary antibodies. Then, the protein band was examined, according to the manufacturer's protocol, using an ECL kit. […]

Series [4] deals with HULEC-5a cells. The series can be described thus: Effect of bleomycin treatment on Hulec-5a cells (western blot of protein levels). The format is cell-based, human. Conditions: Hulec-5a cells treated with bleomycin, FIG. 14. On the procedure: 1.2×10^6 Hulec-5a cells, derived from pulmonary vessels, were suspended in a medium, dispensed into a 100-mm plate, and incubated for 24 hours. After 24 hours, each plate was treated with BLM alone or in combination with novel flavone derivative I at varying concentrations or a predetermined concentration. After a predetermined period of incubation, the cells were lysed with RIPA lysis buffer ([50 mM Tris]-Cl (pH, 7.4), 1% NP-40, 150 mM NaCl, 1 mM EDTA, and 1 mM phenylmethylsulfonyl fluoride (PMSF)) containing MG-132 (10 μM). Next, only the supernatant was collected by centrifugation (at 14,000 rpm for 10 minutes) at 4° C., and the proteins were separated by SDS-polyacrylamide gel electrophoresis (SDS-PAGE). The separated proteins were transferred to a polyvinylidene difluoride membrane (PVDF membrane), reacted in 5% nonfat dry milk for 3 hours, and then reacted with primary antibodies at 4° C. for 12 hours. After 12 hours, the proteins further reacted with secondary antibodies corresponding to the respective primary antibodies. Then, the protein band was examined, according to the manufacturer's protocol, using an ECL kit.

With `COc1ccc(-c2c(-c3ccc(O)c(O)c3)oc3cc(OC)c(OC)cc3c2=O)cc1` [novel flavone derivative I, 2-(3,4-dihydroxyphenyl)-6,7-dimethoxy-3-(4-methoxyphenyl)-4H-chromen-4-one], the cytotoxicity result in the series with HULEC-5a cells [1] (treatment concentrations of up to 5 μM, MTT) is reported as “No cytotoxicity was observed”. For the same compound, the cell viability (commonly a read-out of living cells in per cent, often relative to untreated cells) in the series with HLF cells is recorded as ≥ 80%. Further, in the series with A549 cells [2] (10 ng/mL TGF-β1 and 5 μM compound, 24 hours, FIG. 7), the “levels of fibronectin, HIF-1α, NOX2, NOX4, vimentin, p-EGFR, EGFR, and p-AKT proteins, increased by TGF-β1 treatment” value is “decreased”. Also, the “levels of fibronectin, HIF-1α, and p-c-Src proteins, increased by TGF-β1 treatment” value with A549 cells [2] (10 ng/mL TGF-β1 and 5 μM compound, 48 hours, FIG. 8) was “decreased”. Also, the “levels of pulmonary fibrosis-related factors (fibronectin, α-SMA, HIF-1α, NOX1, NOX2, and NOX4), increased by BLM treatment” value in the series on A549 cells [3] was “decreased”. The “levels of pulmonary fibrosis-related factors (fibronectin, α-SMA, HIF-1α, NOX2, and NOX4)” value in the series on HULEC-5a cells [4] is listed as “decreased”.

Regarding `COc1ccc(-c2c(-c3ccc(O)c(OC)c3)oc3cc(OC)c(OC)cc3c2=O)cc1` [novel flavone derivative II, 2-(4-hydroxy-3-methoxyphenyl)-6,7-dimethoxy-3-(4-methoxyphenyl)-4H-chromen-4-one], the cell viability is ≥ 80% with HULEC-5a cells [1] (all treatment concentrations up to 10 μM, compared to untreated control) and ≥ 80% with HLF cells. In addition, the “levels of Col3, Col4, fibronectin, and NOX4 proteins, increased by TGF-β treatment” value in the series with A549 cells [2] (10 ng/mL TGF-β1 and compound, 24 hours, FIGS. 20 and 21) is given as “decreased”.
